A short description of data set [1]: Acute toxicity in mice, intraperitoneal, deaths counted 48 hours after treatment (Litchfield-Wilcoxon). The following applies: mouse, in vivo, ip, deaths at 48 hours, Litchfield-Wilcoxon test. Also on record: species or system Swiss I.C.R. albino mice. As for the experimental part: Acute toxicity study was made in Swiss I.C.R. albino mice of both sexes of 30±2 g of weight, kept without food for 24 hours prior to the experiment. Ambient temperature and relative humidity were kept constant. The products were administered intraperitoneally, and 48 hours after treatment the number of deaths was counted. Calculation of the lethal dose (LD50) was made by the Litchfield-Wilcoxon test.

Data set [2] has as its system Swiss I.C.R. albino mice. Description: Chemical analgesia, acetic acid writhing technique in mice. In kind it is in vivo. As to conditions: 25 mg/kg, intraperitoneal, 30 minutes before 0.25 ml of 1% acetic acid; counted 20 minutes later; control 121.5 ± 7.184. As for the experimental part: The analgesic effect was studied in Swiss I.C.R. albino mice with the acetic acid writhing technique. Batches of 10 mice were made.
The products in study were administered intraperitoneally, and 30 minutes later 0.25 ml of 1% acetic acid were injected intraperitoneally. A batch of control animals received only the acetic acid. Twenty minutes following administration of the acetic acid, the number of writhes in each mouse is counted.

For data set [3], the system named is Swiss I.C.R. albino mice. Description: Thermal analgesia, 55° C. "hot plate" technique in mice. The data set is classed as in vivo. The following applies: 30 mg/kg, intraperitoneal, 30 minutes before 55° C. hot plate; control 38 ± 4.253. As for the experimental part: The thermal analgesic effect was studied in Swiss I.C.R. albino mice. The 55° C. "hot plate" technique was used. Batches of 10 mice were made.
The products in study were administered intraperitoneally and after 30 minutes the mice were placed on the "hot plate", note having been made, in seconds, of the time it took them to jump. Batches of control animals were injected with only distilled water.

A word on the LD50: it is the dose expected to kill half of the subjects tested. `CCCCCc1ccnc(C(=O)c2ccsc2)c1C` [Product I, 3-thienyl-3-methyl-4-pentyl-2-pyridyl-ketone] yielded a median lethal dose (LD50) at 48 h in data set [1] of 718 mg/kg. Moreover, the “No. of writhes (mean ± S.E.M.)” value in the data set on Swiss I.C.R. albino mice [2] is given as 35.75. The “Jumping time (mean ± S.E.M.)” value in the data set with Swiss I.C.R. albino mice [3] stood at 96.7 see.
The compound `CCC(=O)O[C@](Cc1ccccc1)(c1ccccc1)[C@H](C)CN(C)C` [Dextropropoxyphene, dextropropoxyphene] yielded an LD50 at 48 h in data set [1] of 140 mg/kg. For the same compound, in the data set with Swiss I.C.R. albino mice [2], the “No. of writhes (mean ± S.E.M.)” value is on record as 62.8. For the same compound, in the data set on Swiss I.C.R. albino mice [3], the “Jumping time (mean ± S.E.M.)” value was 83.7 see.

Values taken from patent publication US4172894A, “3-Thienyl-3-methyl-4-pentyl-2-pyridyl-ketone” (Laboratories Made, S.A., priority 1977, dated 1979).
